The source of these data is US9970037B2, “Methods and materials for making simvastatin and related compounds” (The Regents of the University of California, priority 2006, dated 2018).

One data set concerns the target T1, LovD (Aspergillus terreus, UniProt Q9Y7D1).
T1 sequence (Q9Y7D1 1-413): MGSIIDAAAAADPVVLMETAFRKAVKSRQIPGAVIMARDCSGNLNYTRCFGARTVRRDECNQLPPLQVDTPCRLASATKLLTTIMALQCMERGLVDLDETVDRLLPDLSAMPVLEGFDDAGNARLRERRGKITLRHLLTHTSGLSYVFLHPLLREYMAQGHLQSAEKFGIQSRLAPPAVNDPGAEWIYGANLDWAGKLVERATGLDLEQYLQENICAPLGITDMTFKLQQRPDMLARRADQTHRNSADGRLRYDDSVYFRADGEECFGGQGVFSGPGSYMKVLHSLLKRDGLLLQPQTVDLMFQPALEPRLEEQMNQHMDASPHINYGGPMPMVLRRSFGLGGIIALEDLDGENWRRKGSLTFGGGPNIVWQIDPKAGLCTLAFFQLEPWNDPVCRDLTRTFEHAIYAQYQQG
To be noted: label = product formed.

Another data set has as its system E. coli BL21(DE3)/pAW31. Description: Whole cell biocatalysis with E. coli overexpressing LovD. In kind it is cell-based, Escherichia coli. Here is the method: The BL21(DE3)/pAW31 overexpression strain was grown in a shake flask (200 mL) to an OD600 of 1.0, at which time 1 mM IPTG, 0.8 mM monacolin J and 4 mM of either benzoyl-SNAC or benzoyl-SMTG were added to the culture. Expression of LovD and bioconversion was performed at 18° C. The culture was extracted and analyzed for the formation of 8-benzoyl-monacolin J. When supplemented with benzoyl-SNAC, 84% conversion of monacolin J was detected within 20 hours post-induction. The product was lactonized and purified by a single silica-gel chromatography step. The NMR spectra confirmed the regioselective benzoylation of the C8 hydroxyl group as the diagnostic H8 multiplet is shifted downfield to δ 5.61.
Fermentation conditions: 500 mL culture with LB media with 30 mg/L kanamycin. At OD600 of 1.0, cells were concentrated to a final OD600 of 5.0 and induced with 1 mM IPTG. Substrates monacolin J and α-dimethylbutyryl-SNAC were added to a final concentration of 1 mM and 4 mM. At different time points, culture samples were collected, centrifuged, filtered and injected on to HPLC (20 μL). Extraction conditions: When maximum conversion was reached, the broth was acidified to pH of 2.0, extracted with ethyl acetate, dried and redissolved in toluene.
(§1) Whole-cell catalytic synthesis of simvastatin acid from MJ acid and DMB-S-MMP were performed as described (see, e.g., Xie et al., (2007) Appl Environ Microbiol 73: 2054-2060). The E. coli BL21(DE3)/pAW31 and YT2/pAW31 strains were cultured side-by-side for comparison. A single colony of the freshly transformed strains was used to inoculate a 5 mL LB culture supplemented with 35 mg/L kanamycin and grown overnight at 37° C. The next morning, 100 μL of the overnight culture was inoculated into 50 mL cultures containing LB broth, F1 minimal medium and F1 medium supplemented with 0.15 mg/L biotin. Growth rates were monitored by periodically measuring the OD600 reading. When OD600 reached ˜0.5, 100 μM IPTG was added to the culture and expression of LovD was performed at 20° C. for 16 hours. To mimic high density fermentation conditions, the cells were concentrated 10-fold before addition of substrates. Typically, a 14 mL aliquot of the culture was transferred to a 15 mL centrifuge tube and the cells were collected by centrifugation (4° C., 4000 g, 10 minutes). The cell pellet was gently resuspended in 1316 μl of the supernatant, followed by addition of 84 μl of a MJ acid stock solution (250 mM in H2O) (final concentration 15 mM). The concentrated culture was then separated into seven 200 μL samples and 1.2 μL of pure DMB-S-MMP was added to each sample (final concentration ˜25 mM). The culture was then shaken at 300 rpm at room temperature. At each time point, a total extraction was performed by adding 10 μL 20% SDS to lyse the cells, followed by liquid-liquid extraction with 500 μL EA/1% AcOH. The organic phase was removed, evaporated, and redissolved in 50 μL ACN for HPLC analysis. For the BL21(DE3) sample, an additional 1.2 μL aliquot of DMB-S-MMP was added after 12 hours to replenish the hydrolyzed substrates.
The E. coli BL21(DE3)/pAW31 strain was grown in LB medium at 37° C. to an OD600 of 0.5, at which time 100 μM IPTG was added to the culture and expression was performed at RT for 16 hours. A 10 ml culture was transferred to a 15 mL centrifuge tube. The cells were collected by centrifugation (4000 g, 10 minutes). The cell pellet was resuspended in 957 μl of the supernatant. The pH was adjusted to pH 7.9 with 1.0 N NaOH, followed by addition of 33 μl 450 mM MJ (final concentration 15 mM) and 6 μl pure DMB-S-MMP (final concentration ˜25 mM). The culture was then shaken at 300 rpm at room temperature. At each time point, a 4 μL aliquot was removed from the reaction mixture, quenched in 300 μL ethyl acetate containing 1% TFA.

The subject of the next data set is YT2/pAW31. Description: Whole cell biocatalysis with ΔbioH E. coli overexpressing LovD. The class given is cell-based, Escherichia coli. To be noted: 15 mM MJ acid, 25 mM DMB-S-MMP, less than 12 hours. On the procedure:
as §1, with “The culture was then shaken at 300 rpm at room temperature. At each time point, a total extraction was performed by adding 10 μL 20% SDS to lyse the cells, followed by liquid-liquid extraction with 500 μL EA/1% AcOH. The organic phase was removed, evaporated, and redissolved in 50 μL ACN for HPLC analysis. For the BL21(DE3) sample, an additional 1.2 μL aliquot of DMB-S-MMP was added after 12 hours to replenish the hydrolyzed substrates.” left out

The next data set concerns E. coli. In words: Whole-cell based hydrolysis / stability of thioester in E. coli cultures. More on the design: species or system Escherichia coli. To be noted: BL21(DE3)/pAW31 culture, 18° C., 24 hours. Here is the method: The selected 57 mutants from the Keio collection together with BW25113, BL21(DE3) and BL21(DE3)/pAW31 were grown to saturation in a 96-well deep well plate in 1 mL LB media at 37° C. Neat DMB-S-MMP (5 μL) was added to each culture with a final concentration of 20 mM. […] The organic phase was dried, redissolved in 20 μL acetonitrile (CH3CN), and 1 μL was spotted on a TLC plate (silica gel 60 F254). The TLC plates were developed with 20% EA in hexane and visualized with iodine.
Analysis of the compounds were also performed with HPLC using an analytical C18 column (Alltech Apollo 5 u, 150 mm×4.6 mm); linear gradient: 60% CH3CN in water (0.1% trifluoroacetic acid [TFA]) to 95% CH3CN in water (0.1% TFA) over 5 min, 95% CH3CN in water (0.1% TFA) for 10 minutes, with a flow rate of 1 mL/min. HPLC retention times (tR) were as follows: MJ lactone form: 3.40 min; DMB-S-MPA: 3.82 min; DMB-S-MMP: 6.80 min; simvastatin lactone form: 8.45 min. Both MJ and simvastatin acids were lactonized before HPLC analysis.
The mutants, wild type […] and BL21(DE3) were grown to saturation in LB broth in a 96-well plate. […] The cultures were acidified, extracted with ethyl acetate, and the organic phases were analyzed by thin layer chromatography (TLC) using a mobile phase (20% ethyl acetate in hexane) that enabled separation of DMB-S-MMP and DMB-S-MPA (FIG. 14A). […]

Substrate in data set [1]: CCC(C)(C)C(=O)SCCC(=O)OC
Description: LovD transacylation assay: acyl transfer from acyl thioester to C8 hydroxyl of monacolin J, HPLC. The class given is biochemical, Aspergillus terreus. To be noted: other: monacolin J fixed at 2 mM; DMB-S-MMP 0.2-10 mM, 5% DMSO; pH 7.9. Here is the method: We first examined if an acyl-CoA can be used as substrate for the transacylation reaction. The uninterrupted gene of LovD was amplified from A. terreus genomic DNA using splice by overlap extension PCR and was inserted into the pET28a expression vector. Overexpression of soluble, N-terminal 6×His fusion LovD was performed in E. coli strain BL21(DE3)/pAW31. LovD was purified using Nickel-NTA affinity column to homogeneity (final yield˜40 mg/L). The substrate monacolin J (1 mM) was prepared through the LiOH hydrolysis of lovastatin and was added to a reaction mixture containing pure LovD (10 μM) and butyryl-CoA (4 mM), which is a commercially available acyl-CoA that best mimics the natural α-methylbutyrate side chain. The reaction mixture was incubated at room temperature, extracted with ethyl acetate and analyzed by HPLC and LC-MS (FIG. 5).
We assayed the tolerance of LovD towards different acyl substituents by performing the transacylation assay with various commercially available acyl-CoAs (Table 1A). […]
Expression and purification of LovD has been previously described in detail (see, e.g., Xie et al., 2006, Chem Biol 13: 1161-1169). […] The initial velocities (ki) of the acyl substrates were determined with 10 μM LovD, 1 mM monacolin J and 4 mM of the thioester. […] The percent conversion of monacolin J to simvastatin was determined by HPLC analysis (C18). […]

Substrate in data set [2]: CC[C@H](C)C(=O)O[C@H]1C[C@@H](C)C=C2C=C[C@H](C)[C@H](CC[C@@H]3C[C@@H](O)CC(=O)O3)[C@H]21
Description: LovD catalyzed hydrolysis of lovastatin / simvastatin to monacolin J, HPLC. In kind it is biochemical, Aspergillus terreus. To be noted: other: statin as the only substrate; pH 7.9; 25.0 °C. Here is the method:
FIG. 5. […] (B) Conversion as a function of time for (⋄) butyryl-CoA (♦) butyryl-SNAC, (▪) butyryl-SMTG. The apparent kcat values reported throughout the text are initial turnover rates in the linear range. (C) Michaelis-Menten plot of LovD catalyzed hydrolysis of lovastatin to monacolin J. The reaction progress is monitored by HPLC. kcat: 0.21±0.01 min^−1; Km: 0.56±0.05 mM.
As shown in FIG. 5A (trace a), 87% conversion of monacolin J to 4 was observed after 10 hours using butyryl-CoA as an acyl donor. […] The observed 87% conversion is likely approaching equilibrium as evident in FIG. 5B. To examine the biochemical nature of the equilibrium conversion, we assayed whether LovD also catalyzes the reverse, hydrolysis reaction.

Where “and” joins values, the source holds several entries; their conditions need not be identical. Identical values can stand only once. A value given as a limit tells only on which side of the number the result lay.

`CCC(C)(C)C(=O)OC1CC(O)C=C2C=CC(C)C(CCC(O)CC(O)CC(=O)O)C21` (centres unmarked) [huvastatin]: the “apparent turnover rate for synthesis from tetra-ol 7 using the corresponding acyl-thioester” value on LovD is 0.03 min⁻¹.
Take `CCC(C)(C)C(=O)SCCC(=O)OC` [DMB-S-MMP, α-dimethylbutyryl-S-methyl-mercaptopropionate]: the “conversion of monacolin J to simvastatin, whole cell” value with E. coli BL21(DE3)/pAW31 (15 mM monacolin J, 25 mM DMB-S-MMP, cells concentrated 10×, room temperature, 24 hours) is 99% and > 99%. Also, the “conversion of MJ acid to simvastatin acid, whole cell” value with YT2/pAW31 was greater than 99%.
As for `COC(=O)CSC(=O)c1ccccc1` [benzoyl-SMTG], in the data set on E. coli, the “stability of acyl donor in E. coli culture” value was “rapidly degraded”. Besides, the “conversion of monacolin J (benzoylation) in vivo” value with E. coli BL21(DE3)/pAW31 (0.8 mM monacolin J, 4 mM acyl donor, 18° C., within 20 hours post-induction) was determined as 40%.

B1: LovD (Aspergillus terreus) (protein)
chain: T1 sequence (Q9Y7D1 1-413)
notes: 6xHis (N); made in house; host or cells: E. coli BL21(DE3)/pAW31 (pET28a)
As for B1, in data set [1], the Michaelis-Menten constant (Km) stood at 670 ± 40 µM. Besides, in data set [2], the Michaelis-Menten constant (Km) was found to be 560 ± 50 µM and the kcat stood at 0.0035 ± 0.00017 s⁻¹.

Usually Km stands for the concentration of substrate that gives half-maximal velocity. The term kcat denotes the maximal rate divided by the concentration of active sites.
